Assay results as given in ChEMBL document CHEMBL1275577, “Study of the in vitro activities of rifaximin and comparator agents against 536 anaerobic intestinal bacteria from the perspective of potential utility in pathology involving bowel flora” (Antimicrob Agents Chemother, 2009).

How the values were obtained:
Assay type in all cases: functional
[1] = test system: Lactiplantibacillus plantarum; assay: Antimicrobial activity against Lactobacillus plantarum by Wadsworth agar dilution method in presence of beta-lactamase inhibitor Sulbactam
Clostridium bartlettii = assay: Antimicrobial activity against Clostridium bartlettii by Wadsworth agar dilution method in presence of beta-lactamase inhibitor Sulbactam; settings: Intestinibacter bartlettii
Schaalia odontolytica = assay: Antimicrobial activity against Actinomyces odontolyticus by Wadsworth agar dilution method in presence of beta-lactamase inhibitor Sulbactam
Tissierella praeacuta = assay: Antimicrobial activity against Clostridium hastiforme by Wadsworth agar dilution method in presence of beta-lactamase inhibitor Sulbactam
[2] = test system: Lactobacillus acidophilus; assay: Antimicrobial activity against Lactobacillus acidophilus by Wadsworth agar dilution method in presence of beta-lactamase inhibitor Sulbactam
[3] = test system: Prevotella melaninogenica; assay: Antimicrobial activity against Prevotella melaninogenica by Wadsworth agar dilution method in presence of beta-lactamase inhibitor Sulbactam
Desulfovibrio sp. = assay: Antimicrobial activity against Desulfovibrio sp. by Wadsworth agar dilution method in presence of beta-lactamase inhibitor Sulbactam
[4] = test system: Desulfovibrio desulfuricans; assay: Antimicrobial activity against Desulfovibrio desulfuricans by Wadsworth agar dilution method in presence of beta-lactamase inhibitor Sulbactam
Clostridium nexile = assay: Antimicrobial activity against Clostridium nexile by Wadsworth agar dilution method in presence of beta-lactamase inhibitor Sulbactam; settings: Faecalimonas nexilis
[5] = test system: Lactobacillus catenaformis; assay: Antimicrobial activity against Lactobacillus catenaformis by Wadsworth agar dilution method in presence of beta-lactamase inhibitor Sulbactam; settings: Eggerthia catenaformis
Porphyromonas = assay: Antimicrobial activity against Porphyromonas sp. by Wadsworth agar dilution method in presence of beta-lactamase inhibitor Sulbactam
Fusobacterium nucleatum = assay: Antimicrobial activity against Fusobacterium nucleatum by Wadsworth agar dilution method in presence of beta-lactamase inhibitor Sulbactam
[6] = test system: Lacticaseibacillus rhamnosus; assay: Antimicrobial activity against Lactobacillus rhamnosus by Wadsworth agar dilution method in presence of beta-lactamase inhibitor Sulbactam
Clostridioides difficile = assay: Antimicrobial activity against Clostridium difficile by Wadsworth agar dilution method in presence of beta-lactamase inhibitor Sulbactam
Clostridium scindens = assay: Antimicrobial activity against Clostridium scindens by Wadsworth agar dilution method in presence of beta-lactamase inhibitor Sulbactam
[7] = test system: Bifidobacterium adolescentis; assay: Antimicrobial activity against Bifidobacterium adolescentis by Wadsworth agar dilution method in presence of beta-lactamase inhibitor Sulbactam
[8] = test system: Peptostreptococcus anaerobius; assay: Antimicrobial activity against Peptostreptococcus anaerobius by Wadsworth agar dilution method in presence of beta-lactamase inhibitor Sulbactam
Peptoniphilus harei = assay: Antimicrobial activity against Peptoniphilus harei by Wadsworth agar dilution method in presence of beta-lactamase inhibitor Sulbactam
Clostridium sp. = assay: Antimicrobial activity against Clostridium sp. by Wadsworth agar dilution method in presence of beta-lactamase inhibitor Sulbactam
Bacteroides ovatus = assay: Antimicrobial activity against Bacteroides ovatus by Wadsworth agar dilution method in presence of beta-lactamase inhibitor Sulbactam

CC1(C)S[C@@H]2[C@H](NC(=O)[C@H](N)c3ccccc3)C(=O)N2[C@H]1C(=O)O [AMPICILLIN]
MIC [1]: 0.25 µg/mL
MIC50 [1]: 0.25 µg/mL
MIC90 [1]: 2 µg/mL
MIC (Clostridium bartlettii): 0.25 µg/mL
MIC50 (Clostridium bartlettii): 0.25 µg/mL
MIC90 (Clostridium bartlettii): 1 µg/mL
MIC (Schaalia odontolytica): 0.25 µg/mL
MIC50 (Schaalia odontolytica): 0.25 µg/mL
MIC90 (Schaalia odontolytica): 2 µg/mL
MIC (Tissierella praeacuta): 0.25 µg/mL
MIC50 (Tissierella praeacuta): 0.25 µg/mL
MIC90 (Tissierella praeacuta): 1 µg/mL
MIC [2]: 0.25 µg/mL
MIC50 [2]: 0.25 µg/mL
MIC90 [2]: 2 µg/mL
MIC50 [3]: 0.5 µg/mL
MIC90 [3]: 4 µg/mL
MIC50 (Desulfovibrio sp.): 4 µg/mL
MIC90 (Desulfovibrio sp.): 32 µg/mL
MIC50 [4]: 8 µg/mL
MIC90 [4]: 8 µg/mL
MIC (Clostridium nexile): 0.25 µg/mL
MIC50 (Clostridium nexile): 0.25 µg/mL
MIC90 (Clostridium nexile): 1 µg/mL
MIC [5]: 0.25 µg/mL
MIC50 [5]: 0.25 µg/mL
MIC90 [5]: 2 µg/mL
MIC (Porphyromonas): 0.25 µg/mL
MIC50 (Porphyromonas): 0.25 µg/mL
MIC90 (Porphyromonas): 0.5 µg/mL
MIC50 (Fusobacterium nucleatum): 0.25 µg/mL
MIC90 (Fusobacterium nucleatum): 0.25 µg/mL
MIC [6]: 0.25 µg/mL
MIC50 [6]: 0.25 µg/mL
MIC90 [6]: 2 µg/mL
MIC50 (Clostridioides difficile): 2 µg/mL
MIC90 (Clostridioides difficile): 4 µg/mL
MIC (Clostridium scindens): 0.25 µg/mL
MIC50 (Clostridium scindens): 0.25 µg/mL
MIC90 (Clostridium scindens): 1 µg/mL
MIC [7]: 0.25 µg/mL
MIC50 [7]: 0.25 µg/mL
MIC90 [7]: 2 µg/mL
MIC [8]: 0.25 µg/mL
MIC50 [8]: 0.25 µg/mL
MIC90 [8]: 2 µg/mL
MIC (Peptoniphilus harei): 0.25 µg/mL
MIC50 (Peptoniphilus harei): 0.25 µg/mL
MIC90 (Peptoniphilus harei): 2 µg/mL
MIC (Clostridium sp.): 0.25 µg/mL
MIC50 (Clostridium sp.): 0.25 µg/mL
MIC90 (Clostridium sp.): 1 µg/mL
MIC50 (Bacteroides ovatus): 8 µg/mL
MIC90 (Bacteroides ovatus): 32 µg/mL
